Among the data in patent US20230143604A1, “QW DOSING OF GIP RECEPTOR AGONIST PEPTIDE COMPOUNDS AND USES THEREOF” (TAKEDA PHARMACEUTICAL COMPANY LIMITED, priority 2020, published 2023) are solubility values, retold here.

This data set can be described thus: Solubility in phosphate buffer pH 7.4. In a few lines: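 3 mg of peptide treated with 100 μL portions of 200 mM phosphate buffer pH 7.4, sonicating/vortexing up to 1 min, with further buffer added until fully dissolved. Solubility then quantified by HPLC.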
The mark [1] stands for this setting: pH 7.4, aqueous buffer, pH 7.4 Phosphate Buffer - Solubility, 200 mM Phosphate buffer pH 7.4.
[2] abbreviates: pH 7.4, solubility in phosphate buffer at pH 7.4, 200 mM phosphate buffer pH 7.4.

Starred links: 1 amine or outer side, 2 acyl side, 3 side chain; linkers in the order of their positions; H or OH if unused. Non-standard residues stand in square brackets, D forms with d. Residues, ends and D or L forms follow the SMILES beside them. Groups on a side chain read outwards from the residue. *: point of attachment. C18 diacid = O=C(O)CCCCCCCCCCCCCCCCC(=O)*; C17 diacid = O=C(O)CCCCCCCCCCCCCCCC(=O)*; γGlu = O=C(O)[C@H](CCC(=O)[*:2])N[*:1]; NMeY = CN[C@@H](Cc1ccc(O)cc1)C(=O)O; AEEA = NCCOCCOCC(=O)O; Aib = CC(C)(N)C(=O)O A value given as a limit tells only on which side of the number the result lay.

In the case of `CC[C@H](C)[C@H](NC(=O)[C@H](Cc1ccccc1)NC(=O)[C@@H](NC(=O)CNC(=O)[C@H](CCC(=O)O)NC(=O)C(C)(C)NC(=O)[C@H](Cc1ccc(O)cc1)NC)[C@@H](C)O)C(=O)N[C@@H](CO)C(=O)N[C@@H](CC(=O)O)C(=O)N[C@@H](Cc1ccc(O)cc1)C(=O)N[C@@H](CO)C(=O)N[C@H](C(=O)NC(C)(C)C(=O)N[C@@H](CC(C)C)C(=O)N[C@@H](CC(=O)O)C(=O)N[C@@H](CCCNC(=N)N)C(=O)N[C@@H](CCCCNC(=O)COCCOCCNC(=O)COCCOCCNC(=O)CC[C@H](NC(=O)CC[C@H](NC(=O)CCCCCCCCCCCCCCCCC(=O)O)C(=O)O)C(=O)O)C(=O)N[C@@H](C)C(=O)N[C@@H](CCC(N)=O)C(=O)NC(C)(C)C(=O)N[C@@H](CC(N)=O)C(=O)N[C@@H](Cc1ccccc1)C(=O)N[C@H](C(=O)N[C@@H](CC(N)=O)C(=O)N[C@@H](Cc1c[nH]c2ccccc12)C(=O)N[C@@H](CC(C)C)C(=O)N[C@@H](CC(C)C)C(=O)N[C@@H](C)C(=O)N[C@@H](CCC(N)=O)C(=O)N[C@@H](CCCNC(=N)N)C(=O)N1CCC[C@H]1C(=O)N[C@@H](CO)C(=O)N[C@@H](CO)C(=O)NCC(=O)N[C@@H](C)C(=O)N1CCC[C@H]1C(=O)N1CCC[C@H]1C(=O)N1CCC[C@H]1C(=O)N[C@@H](CO)C(N)=O)C(C)C)[C@@H](C)CC` [Compound 26] (H-[NMeY][Aib]EGTFISDYSI[Aib]LDRK([AEEA-AEEA-γGlu-γGlu-C18 diacid])AQ[Aib]NFVNWLLAQRPSSGAPPPS-NH2), the solubility (commonly the dissolved amount per volume that the medium holds) was at least 30 mg/mL under setting [1] and at least 15 mg/mL under setting [2]. Regarding `CC[C@H](C)[C@H](NC(=O)[C@H](CCCCN)NC(=O)[C@H](CC(=O)O)NC(=O)[C@H](CC(C)C)NC(=O)[C@H](C)NC(=O)[C@@H](NC(=O)[C@H](CO)NC(=O)[C@H](Cc1ccc(O)cc1)NC(=O)[C@H](CC(=O)O)NC(=O)[C@H](CO)NC(=O)[C@@H](NC(=O)[C@H](Cc1ccccc1)NC(=O)[C@@H](NC(=O)CNC(=O)[C@H](CCC(=O)O)NC(=O)C(C)(C)NC(=O)[C@@H](N)Cc1ccc(O)cc1)[C@@H](C)O)[C@@H](C)CC)[C@@H](C)CC)C(=O)N[C@@H](C)C(=O)N[C@@H](CCC(N)=O)C(=O)NC(C)(C)C(=O)N[C@@H](CCCCNC(=O)COCCOCCNC(=O)COCCOCCNC(=O)CC[C@H](NC(=O)CC[C@H](NC(=O)CCCCCCCCCCCCCCCC(=O)O)C(=O)O)C(=O)O)C(=O)N[C@@H](Cc1ccccc1)C(=O)N[C@H](C(=O)N[C@@H](CCC(=O)O)C(=O)N[C@@H](Cc1c[nH]c2ccccc12)C(=O)N[C@@H](CC(C)C)C(=O)N[C@@H](CC(C)C)C(=O)N[C@@H](C)C(=O)N[C@@H](CCC(N)=O)C(=O)N[C@@H](CCCNC(=N)N)C(=O)NCC(=O)O)C(C)C` [Compound 132] (H-Y[Aib]EGTFISDYSIALDKIAQ[Aib]K([AEEA-AEEA-γGlu-γGlu-C17 diacid])FVEWLLAQRG-OH), the solubility was at least 15 mg/mL (pH 7.4) and at least 30 mg/mL (pH 7.4, aqueous buffer). Turning to `CC[C@H](C)[C@H](NC(=O)[C@H](CO)NC(=O)[C@H](Cc1ccc(O)cc1)NC(=O)[C@H](CC(=O)O)NC(=O)[C@H](CO)NC(=O)[C@@H](NC(=O)[C@H](Cc1ccccc1)NC(=O)[C@@H](NC(=O)CNC(=O)[C@H](CCC(=O)O)NC(=O)C(C)(C)NC(=O)[C@H](Cc1ccc(O)cc1)NC)[C@@H](C)O)[C@@H](C)CC)C(=O)N[C@@H](C)C(=O)N[C@@H](CC(C)C)C(=O)N[C@@H](CC(=O)O)C(=O)N[C@@H](CCCNC(=N)N)C(=O)NC(C)(C)C(=O)N[C@@H](CCCCNC(=O)COCCOCCNC(=O)COCCOCCNC(=O)CC[C@H](NC(=O)CC[C@H](NC(=O)CCCCCCCCCCCCCCCCC(=O)O)C(=O)O)C(=O)O)C(=O)N[C@@H](CCC(N)=O)C(=O)NC(C)(C)C(=O)N[C@@H](CC(N)=O)C(=O)N[C@@H](Cc1ccccc1)C(=O)N[C@H](C(=O)N[C@@H](CC(N)=O)C(=O)N[C@@H](Cc1c[nH]c2ccccc12)C(=O)N[C@@H](CC(C)C)C(=O)N[C@@H](CC(C)C)C(=O)N[C@@H](C)C(=O)N[C@@H](CCC(N)=O)C(=O)N[C@@H](CCCNC(=N)N)C(N)=O)C(C)C` [Compound 17] (H-[NMeY][Aib]EGTFISDYSIALDR[Aib]K([AEEA-AEEA-γGlu-γGlu-C18 diacid])Q[Aib]NFVNWLLAQR-NH2), the solubility by setting is: (pH 7.4) at least 15 mg/mL; (pH 7.4, aqueous buffer) at least 30 mg/mL. For `CC[C@H](C)[C@H](NC(=O)[C@H](Cc1ccccc1)NC(=O)[C@@H](NC(=O)CNC(=O)[C@H](CCC(=O)O)NC(=O)C(C)(C)NC(=O)[C@H](Cc1ccc(O)cc1)NC)[C@@H](C)O)C(=O)N[C@@H](CO)C(=O)N[C@@H](CC(=O)O)C(=O)N[C@@H](Cc1ccc(O)cc1)C(=O)N[C@@H](CO)C(=O)N[C@H](C(=O)NC(C)(C)C(=O)N[C@@H](CC(C)C)C(=O)N[C@@H](CC(=O)O)C(=O)N[C@@H](CCCNC(=N)N)C(=O)NC(C)(C)C(=O)N[C@@H](CCCCNC(=O)COCCOCCNC(=O)COCCOCCNC(=O)CC[C@H](NC(=O)CC[C@H](NC(=O)CCCCCCCCCCCCCCCCC(=O)O)C(=O)O)C(=O)O)C(=O)N[C@@H](C)C(=O)NC(C)(C)C(=O)N[C@@H](CC(N)=O)C(=O)N[C@@H](Cc1ccccc1)C(=O)N[C@H](C(=O)N[C@@H](CC(N)=O)C(=O)N[C@@H](Cc1c[nH]c2ccccc12)C(=O)N[C@@H](CC(C)C)C(=O)N[C@@H](CC(C)C)C(=O)N[C@@H](C)C(=O)N[C@@H](CCC(N)=O)C(=O)N[C@@H](CO)C(=O)N1CCC[C@H]1C(=O)N[C@@H](CO)C(=O)N[C@@H](CO)C(=O)NCC(=O)N[C@@H](C)C(=O)N1CCC[C@H]1C(=O)N1CCC[C@H]1C(=O)N1CCC[C@H]1C(=O)N[C@@H](CO)C(N)=O)C(C)C)[C@@H](C)CC` [Compound 109] (H-[NMeY][Aib]EGTFISDYSI[Aib]LDR[Aib]K([AEEA-AEEA-γGlu-γGlu-C18 diacid])A[Aib]NFVNWLLAQSPSSGAPPPS-NH2), the solubility is, setting by setting: under setting [1], at least 60 mg/mL; under setting [2], at least 15 mg/mL. For the setting “pH 7.4, aqueous buffer”, `CC[C@H](C)[C@H](NC(=O)[C@H](CCCNC(=N)N)NC(=O)[C@H](CC(=O)O)NC(=O)[C@H](CCCCNC(=O)CNC(=O)CNC(=O)CNC(=O)CNC(=O)CNC(=O)CCCCCCCCCCCCCCCCC(=O)O)NC(=O)[C@H](C)NC(=O)[C@@H](NC(=O)[C@H](CO)NC(=O)[C@H](Cc1ccc(O)cc1)NC(=O)[C@H](CC(=O)O)NC(=O)[C@H](CO)NC(=O)[C@@H](NC(=O)[C@H](Cc1ccccc1)NC(=O)[C@@H](NC(=O)CNC(=O)[C@H](CCC(=O)O)NC(=O)C(C)(C)NC(=O)[C@H](Cc1ccc(O)cc1)NC)[C@@H](C)O)[C@@H](C)CC)[C@@H](C)CC)C(=O)N[C@@H](C)C(=O)N[C@@H](CCC(N)=O)C(=O)N[C@@H](CCC(N)=O)C(=O)N[C@@H](CC(=O)O)C(=O)N[C@@H](Cc1ccccc1)C(=O)N[C@H](C(=O)N[C@@H](CC(N)=O)C(=O)N[C@@H](Cc1c[nH]c2ccccc12)C(=O)N[C@@H](CC(C)C)C(=O)N[C@@H](CC(C)C)C(=O)N[C@@H](C)C(=O)N[C@@H](CCC(N)=O)C(=O)N[C@@H](CCCNC(=N)N)C(=O)N1CCC[C@H]1C(=O)N[C@@H](CO)C(=O)N[C@@H](CO)C(=O)NCC(=O)O)C(C)C` [Compound 285] came in with a solubility of under 6 mg/mL. The compound `CC[C@H](C)[C@H](NC(=O)[C@H](CO)NC(=O)[C@H](Cc1ccc(O)cc1)NC(=O)[C@H](CC(=O)O)NC(=O)[C@H](CO)NC(=O)[C@@H](NC(=O)[C@H](Cc1ccccc1)NC(=O)[C@@H](NC(=O)CNC(=O)[C@H](CCC(=O)O)NC(=O)C(C)(C)NC(=O)[C@H](Cc1ccc(O)cc1)NC)[C@@H](C)O)[C@@H](C)CC)C(=O)N[C@@H](C)C(=O)N[C@@H](CCCCNC(=O)CNC(=O)CNC(=O)CNC(=O)CNC(=O)CNC(=O)CCCCCCCCCCCCCCCCC(=O)O)C(=O)N[C@@H](CC(=O)O)C(=O)N[C@@H](CCCNC(=N)N)C(=O)NC(C)(C)C(=O)N[C@@H](C)C(=O)N[C@@H](CCC(N)=O)C(=O)NC(C)(C)C(=O)N[C@@H](CC(N)=O)C(=O)N[C@@H](Cc1ccccc1)C(=O)N[C@H](C(=O)N[C@@H](CC(N)=O)C(=O)N[C@@H](Cc1c[nH]c2ccccc12)C(=O)N[C@@H](CC(C)C)C(=O)N[C@@H](CC(C)C)C(=O)N[C@@H](C)C(=O)N[C@@H](CCC(N)=O)C(=O)N[C@@H](CCCNC(=N)N)C(N)=O)C(C)C` [Compound 250] returned a solubility (pH 7.4, aqueous buffer) of at least 0.7 mg/mL. In turn, `CC[C@H](C)[C@H](NC(=O)[C@H](CO)NC(=O)[C@H](Cc1ccc(O)cc1)NC(=O)[C@H](CC(=O)O)NC(=O)[C@H](CO)NC(=O)[C@@H](NC(=O)[C@H](Cc1ccccc1)NC(=O)[C@@H](NC(=O)CNC(=O)[C@H](CCC(=O)O)NC(=O)C(C)(C)NC(=O)[C@@H](N)Cc1ccc(O)cc1)[C@@H](C)O)[C@@H](C)CC)C(=O)N[C@@H](C)C(=O)NC(C)(C)C(=O)N[C@@H](CC(=O)O)C(=O)N[C@@H](CCCCN)C(=O)N[C@@H](C)C(=O)N[C@@H](C)C(=O)N[C@@H](CCC(N)=O)C(=O)N[C@@H](C)C(=O)N[C@@H](CCCCNC(=O)COCCOCCNC(=O)COCCOCCNC(=O)CC[C@H](NC(=O)CC[C@H](NC(=O)CCCCCCCCCCCCCCCCC(=O)O)C(=O)O)C(=O)O)C(=O)N[C@@H](Cc1ccccc1)C(=O)N[C@H](C(=O)N[C@@H](CCC(=O)O)C(=O)N[C@@H](Cc1c[nH]c2ccccc12)C(=O)N[C@@H](CC(C)C)C(=O)N[C@@H](CC(C)C)C(=O)N[C@@H](C)C(=O)N[C@@H](CCC(N)=O)C(=O)N[C@@H](CCCNC(=N)N)C(=O)NCC(=O)O)C(C)C` [Compound 158] (H-Y[Aib]EGTFISDYSIA[Aib]DKAAQAK([AEEA-AEEA-γGlu-γGlu-C18 diacid])FVEWLLAQRG-OH) gave a solubility (pH 7.4) of at least 15 mg/mL and a solubility (pH 7.4, aqueous buffer) of at least 30 mg/mL.
